Experiments:
A549 and BEAS-2B cells = assay: Particle-induced secretion of pro-inflammatory cytokines in lung epithelial cell lines (overall); type: cell-based
Procedure: Secretion of the pro-inflammatory cytokines interleukin (IL)-6, IL-8 (as well as GM-CSF and MCP-1) into cell media in response to particle exposure was measured in A549 and BEAS-2B cells using the following method.
Lung epithelial cells were seeded at 5×10^4 in 24-well plates. After pre-incubation with NBMI, the antioxidant compound, N-acetyl-L-cysteine (NAC), which was used as a positive control, or vehicle, for 3 hours the medium was removed.
Fresh media containing various particles (as below) in different concentrations was in a total volume of 0.5 ml for an additional 24 hours. The supernatants were then separated from the cells by centrifugation.
IL-8, IL-6, GM-CSF and MCP-1 were measured in the cell free fluid using the DuoSet ELISA Development kit (R&D Systems, Abingdon, UK) according to manufacturer's protocol.
Exposure to medium only served as negative control. Each experiment was performed twice with 4 replicates.
The effect of pre-incubation with 50 μM NBMI on particle-induced cytokine formation was tested at various concentrations of particles.

[1] = tested on: primary neurons incubated with oligomeric Aβ42; assay: Aβ42-induced cell death in primary neurons co-cultured with N9 cells (MTT viability); type: cell-based, mice; conditions: primary neurons incubated with oligomeric Aβ42 (200 nM), NBMI 10 nM pre-treatment 30 minutes, FIG. 1
Procedure: (§1) Aβ42 stock was solubilized in DMSO at a concentration of 2 mM, vortexed and sonicated for 2 minutes to ensure complete dissolution. Aβ42 was diluted in 50 mM NaPi, 100 mM NaCl (pH 7.4) buffer at a concentration of 200 μM and was used within 3 hours at a final concentration of 200 nM.
Primary cultures of cortical neurons were prepared from the cerebral cortex of mice at embryonic stage 17 (E17). The cells from each cortex were seeded separately on poly-L-ornithine (Sigma) pre-coated 6-well plates at a density of 0.25×10^6 cells/cm^2 in Neurobasal media containing B27 supplement with antioxidant, 1% penstrep and 1% glutamine.
(§2) After 10 days' incubation, neurons were used in experiments. Where indicated, cells were pre-treated for 30 minutes with NBMI (10 nM) added directly to the cell culture medium.
To determine cell viability, cells were washed with PBS (pH 7.4). MTT solution (3-(4,5-dimethylthiazol-2yl)-2,5-diphenyl tetrazolium bromide) was added to cells for 30 minutes at 37° C. After three washes, the insoluble formazan product was dissolved in dimethyl sulfoxide. The optical density of each culture well was then measured using a micro-plate reader (Molecular Probes, Garching, Germany) at 550 nm. The optical density of formazan formed in control cells was taken as 100% of viability. […]

microglia = assay: Internalization of Aβ42 by microglia; type: cell-based; conditions: following Aβ42 administration; FIG. 2B
Procedure: as §1
(§3) TNF-α secretion from primary microglia and the BV2 cell line was valued by a specific sandwich-type enzyme-linked immunoabsorbent assay (ELISA) (Duoset, R&D system) according to the manufacturer's instructions. Intracellular concentration of Aβ42 was measured using a specific sandwich-type ELISA assay (human Aβ42 kit, Invitrogen, KHB3441 and mouse/rat, IBL 27721; Immuno-Biological Laboratories Co., Ltd., Japan) according to the manufacturer's instructions.
N9 cells were treated with 200 nM Aβ42488 (Anaspect), and AR internalization was recorded in culture for 24 hours after AR administration using a CelIR microscope, with the image processed using CelIR software.

TNF-α = assay: Primary microglia activation (TNF-α release, ELISA) following Aβ42 administration; type: cell-based; conditions: FIG. 2A
Procedure: as §1, §2, §3

Aβ42 = target: T1, Aβ42 (Homo sapiens, UniProt P05067); assay: Aggregation state of Aβ42 in media and cell lysate of primary microglia cultures (ELISA); type: cell-based; conditions: in the media and in the cell lysate, FIG. 3
T1 construct: Aβ42 stock was solubilized in DMSO at a concentration of 2 mM; host or cells: added to primary microglia cultures
Procedure: Aβ42 stock was solubilized in DMSO at a concentration of 2 mM, vortexed and sonicated for 2 minutes to ensure complete dissolution. Aβ42 was diluted in 50 mM NaPi, 100 mM NaCl (pH 7.4) buffer at a concentration of 200 μM and was used within 3 hours at a final concentration of 200 nM. TNF-α secretion from primary microglia and the BV2 cell line was valued by a specific sandwich-type enzyme-linked immunoabsorbent assay (ELISA) (Duoset, R&D system) according to the manufacturer's instructions. Intracellular concentration of Aβ42 was measured using a specific sandwich-type ELISA assay (human Aβ42 kit, Invitrogen, KHB3441 and mouse/rat, IBL 27721; Immuno-Biological Laboratories Co., Ltd., Japan) according to the manufacturer's instructions. Homogenization was performed with a cold 4× volume of PBS supplemented with the 1× protease inhibitor cocktail, followed by the addition of a solution 8.2 M guanidine/82 mM Tris HCl (pH 8.0) to yield a solution with a 5M final guanidine concentration.

T1 sequence (P05067 672-713 limits assumed): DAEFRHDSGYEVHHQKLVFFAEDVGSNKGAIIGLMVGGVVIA

Compound	secretion of inflammatory cytokines (A549 and BEAS-2B cells; pre-incubation with 5 mM NAC (positive control))	particle-induced secretion of pro-inflammatory cytokines (A549 and BEAS-2B cells; both cell lines (A549, BEAS-2B), pre-incubation with 50 μM NBMI)	Aβ42-induced cell death [1]	internalization of Aβ42 by microglia (microglia)	primary microglia activation (evaluated as TNF-α release) (TNF-α)	aggregation state of Aβ42 (Aβ42)
CC(=O)N[C@@H](CS)C(=O)O [NAC, N-acetyl-L-cysteine, reference compound]	effective in reducing	–	–	–	–	–
O=C(NCCS)c1cccc(C(=O)NCCS)c1 [NBMI, N,N-bis-2-mercaptoethyl isophthalamide]	–	can reduce	reduced	modulated	blocked	changed

Source: patent US11628151B2, “N,N-bis-2-mercaptoethyl isophthalamide for the treatment of neurodegenerative diseases” (EMERAMED LIMITED, priority 2014, dated 2023)
